The text below walks through data of patent US11191769B2, “Fused thiophene compounds” (BioTheryX, Inc., priority 2018, dated 2021).

One may read the viability as a read-out of living cells in per cent, often relative to untreated cells. Read a low viability as more harm to the cells. By inhibition is commonly meant the drop in the measured response relative to a control, in per cent. One may read the fold induction as the signal under treatment as a multiple of the control signal.

Common to all, as to format: cell-based
In one assay the test system is MOLM-13 cells. Kind of assay: MOLM-13 cell viability assay (CellTiter-Glo). The conditions noted are these: Homo sapiens, MOLM-13, 72 h, 3 days, % of DMSO control. The procedure: MOLM-13 cells were cultured in RPMI 1640 media supplemented with 10% fetal bovine serum, streptomycin and penicillin, and were plated in white walled 96-well plates at 2500 cells/well. Cells were incubated in DMSO (control) or the indicated compound for 3 days at 37° C. and 5% CO2. Following the incubation period, 100 μL of CellTiterGlow (CTG) reagent (CellTiter-Glo® Luminescent Cell Viability Assay, Promega (Madison, Wis.)) was added to each well. Following a 10 minutes incubation with shaking, luminescence was measured using the EnVision Multimode plate reader.
The MOLM-13 cell viability values as % DMSO are reported as “A”, “B”, “C”, or “D”. “A” represents a % viability value of less than 25% (value<25%). “B” represents a % viability value of equal to or more than 25% and less than 50% (25%≤value<50%). “C” represents a % viability value of equal to or more than 50% and less than 75% (50%≤value<75%). “D” represents a % viability value of equal or more than 75% (value≥75%).
A general note: In ATP-based viability assays light output follows the ATP content of the culture.

In the next assay the test system is TNFα. Nature of the assay: TNF-α inhibition assay, LPS-induced PBMCs or CD14+ monocytes, Meso Scale. The conditions noted are these: 1 h pretreatment, 100 ng/mL LPS 18-24 h, supernatant. The procedure:
(§1) Either frozen primary blood mononuclear cells (PBMCs) or frozen CD14+ mobilized peripheral blood monocytes were purchased from AllCells (PB003F, Normal Peripheral Blood MNC (Alameda, Calif.)). Cells were quick thawed, washed 1-time with RPMI-1640 (10% FBS/1% Pen-Strep) and plated in 96 well plates at 200,000 cells per well. Cells were pretreated with DMSO only or with the indicated compound for 1 h and then induced with 100 ng/mL lipopolysaccharide (LPS) for 18-24 h. The supernatant was analyzed for IL-1β, IL-6, and TNFα, using Meso Scale assay according to manufacturer's protocol. The negative control wells were treated with DMSO.
(§2) In each of Tables 5-7, the % inhibition values are reported as “A”, “B”, “C”, or “D”. “A” represents a % inhibition value of less than 50% (value <50%). “B” represents a % inhibition value of equal to or more than 50% and less than 70% (50%≤value<70%). “C” represents a % inhibition value of equal to or more than 70% and less than 90% (70%≤value<90%). “D” represents a % inhibition value of equal or more than 90% (value≥90%). In Table 8, the fold-change values are reported as “A”, “B”, “C”, or “D”. “A” represents a fold-change value of equal to or less than 1 (value≤1). “B” represents a fold-change value of more than 1 and equal to or less than 2 (1<value≤2). “C” represents a fold-change value of more than 2 and equal to or less than 3 (2<value≤3). “D” represents a fold-change value of more than 3 (value>3).

A further assay deals with IL-2. Nature of the assay: IL-2 fold-change assay, anti-CD3 stimulated PBMCs, Mesoscale. The conditions noted are these: PBMC, PBMCs on anti-human CD3 (OKT3) coated plates, 24 h, fold difference from the DMSO control. The procedure: For the IL-2 analysis, 96 well plates were precoated with 1 μg/mL anti-human CD3 antibody (OKT3, eBioscience Inc., San Diego, Calif.). After washing with PBS, the indicated compound was added (50 μL/well) followed by PBMCs diluted at 3-4 million cells/mL (150 μL/well). Plates were incubated for 24 h and the supernatants collected for Mesoscale IL-2 analysis. IL-2 activity is measured as fold difference from the DMSO control.
as §2

For another assay, the system named is IL-1β. Nature of the assay: IL-1β inhibition assay, LPS-induced PBMCs or CD14+ monocytes, Meso Scale. The conditions noted are these: 1 h pretreatment, 100 ng/mL LPS 18-24 h, supernatant, read-out: I1-1β % Inhibition at 10 μM. The protocol:
as §1, §2

In the next assay the test system is IL-6. Kind of assay: IL-6 inhibition assay, LPS-induced PBMCs or CD14+ monocytes, Meso Scale. The conditions noted are these: 1 h pretreatment, 100 ng/mL LPS 18-24 h, supernatant. The procedure: as §1, §2
A further assay concerns the target T1, IKAROS (Homo sapiens, UniProt Q13422+Q96SW2).
T1 construct: endogenous in cells; host or cells: MV-4-11
Nature of the assay: IKAROS degradation assay (Western blot, MV-4-11 cells). The conditions noted are these: 6-8 hours; for IKAROS % degradation at 1 µM: MV4-11, 1 μM. The procedure: (§3) MV-4-11 cells were grown in RPMI 1640 media supplemented with 10% fetal bovine serum, streptomycin and penicillin.
(§4) Cells were cultured at approximately 10^6 cells per mL and incubated in DMSO or the indicated compound for 6-8 hours. Whole cell extracts were prepared using RIPA buffer according to manufacturer's protocol (Pierce). Briefly, 3×10^6 cells were washed once in PBS, the cell pellets were resuspended in RIPA buffer and allowed to incubate for 15 minutes on ice. Cells debris was removed by centrifugation and the cleared whole cell lysates were transferred to new tubes for further analysis.
(§5) For Western blot analysis, whole cell protein extracts were separated on 4-12% SDS-polyacrylamide gels, transferred to nitrocellulose and probed with the indicated primary antibodies. Membranes were subsequently washed and probed with the appropriate IRDye secondary antibodies (LI-COR). The signal was detected using the Odyssey Imaging System (LI-COR).
(§6) The following antibodies were used in these studies: Anti-eRF3/GSPT1: Abcam, ab126090 (Cambridge, Mass.); Anti-Ikaros: Abcam, ab191394 (Cambridge, Mass.); Anti-CK1α: Abcam, ab108296 (Cambridge, Mass.); β-actin (8H10D10) mouse monoclonal antibody: Cell Signaling Technology, #3700 (Danvers, Mass.); IRDye 680RD Goat anti-rabbit antibody: LI-COR, 926-68071 (Lincoln, Nebr.); IRDye 800CW Goat anti-mouse antibody: LI-COR, 926-32210 (Lincoln, Nebr.).
(§7) In each of Tables 1-4, the % degradation values are reported as “A”, “B”, “C”, or “D”. “A” represents a % degradation value of less than 25% (value<25%). “B” represents a % degradation value of equal to or more than 25% and less than 50% (25%≤value<50%). “C” represents a % degradation value of equal to or more than 50% and less than 75% (50%≤value <75%). “D” represents a % degradation value of equal to or more than 75% (value≥75%).
For orientation: A western blot detects proteins with antibodies after separation by electrophoresis.

In another assay the target is T2, CK1α (Homo sapiens, UniProt P48729+Q96SW2).
T2 construct: Whole cell extracts were prepared using RIPA buffer; endogenous in cells; host or cells: MV-4-11
T2 sequence (P48729 whole entry): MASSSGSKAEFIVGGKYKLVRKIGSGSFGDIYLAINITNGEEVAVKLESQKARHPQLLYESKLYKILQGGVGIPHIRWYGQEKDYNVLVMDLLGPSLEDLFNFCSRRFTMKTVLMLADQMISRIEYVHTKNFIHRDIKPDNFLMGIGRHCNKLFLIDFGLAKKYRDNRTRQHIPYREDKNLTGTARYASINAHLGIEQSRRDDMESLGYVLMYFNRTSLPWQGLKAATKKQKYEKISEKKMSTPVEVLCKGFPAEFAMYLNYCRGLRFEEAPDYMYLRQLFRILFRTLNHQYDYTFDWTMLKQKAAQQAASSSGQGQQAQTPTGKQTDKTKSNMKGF
T2 sequence (Q96SW2 whole entry): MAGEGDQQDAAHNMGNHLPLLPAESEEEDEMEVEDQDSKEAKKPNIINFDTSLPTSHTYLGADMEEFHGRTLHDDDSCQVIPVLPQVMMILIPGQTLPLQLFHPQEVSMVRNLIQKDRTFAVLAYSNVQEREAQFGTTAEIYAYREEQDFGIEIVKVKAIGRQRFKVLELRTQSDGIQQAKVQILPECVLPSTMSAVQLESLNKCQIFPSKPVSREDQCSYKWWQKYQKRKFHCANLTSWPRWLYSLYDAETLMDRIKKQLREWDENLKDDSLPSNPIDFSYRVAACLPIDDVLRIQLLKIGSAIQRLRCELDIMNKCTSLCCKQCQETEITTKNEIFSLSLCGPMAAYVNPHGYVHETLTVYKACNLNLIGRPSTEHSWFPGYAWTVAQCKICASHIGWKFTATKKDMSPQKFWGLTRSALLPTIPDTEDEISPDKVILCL
T2 sequence (Q16531 whole entry partner): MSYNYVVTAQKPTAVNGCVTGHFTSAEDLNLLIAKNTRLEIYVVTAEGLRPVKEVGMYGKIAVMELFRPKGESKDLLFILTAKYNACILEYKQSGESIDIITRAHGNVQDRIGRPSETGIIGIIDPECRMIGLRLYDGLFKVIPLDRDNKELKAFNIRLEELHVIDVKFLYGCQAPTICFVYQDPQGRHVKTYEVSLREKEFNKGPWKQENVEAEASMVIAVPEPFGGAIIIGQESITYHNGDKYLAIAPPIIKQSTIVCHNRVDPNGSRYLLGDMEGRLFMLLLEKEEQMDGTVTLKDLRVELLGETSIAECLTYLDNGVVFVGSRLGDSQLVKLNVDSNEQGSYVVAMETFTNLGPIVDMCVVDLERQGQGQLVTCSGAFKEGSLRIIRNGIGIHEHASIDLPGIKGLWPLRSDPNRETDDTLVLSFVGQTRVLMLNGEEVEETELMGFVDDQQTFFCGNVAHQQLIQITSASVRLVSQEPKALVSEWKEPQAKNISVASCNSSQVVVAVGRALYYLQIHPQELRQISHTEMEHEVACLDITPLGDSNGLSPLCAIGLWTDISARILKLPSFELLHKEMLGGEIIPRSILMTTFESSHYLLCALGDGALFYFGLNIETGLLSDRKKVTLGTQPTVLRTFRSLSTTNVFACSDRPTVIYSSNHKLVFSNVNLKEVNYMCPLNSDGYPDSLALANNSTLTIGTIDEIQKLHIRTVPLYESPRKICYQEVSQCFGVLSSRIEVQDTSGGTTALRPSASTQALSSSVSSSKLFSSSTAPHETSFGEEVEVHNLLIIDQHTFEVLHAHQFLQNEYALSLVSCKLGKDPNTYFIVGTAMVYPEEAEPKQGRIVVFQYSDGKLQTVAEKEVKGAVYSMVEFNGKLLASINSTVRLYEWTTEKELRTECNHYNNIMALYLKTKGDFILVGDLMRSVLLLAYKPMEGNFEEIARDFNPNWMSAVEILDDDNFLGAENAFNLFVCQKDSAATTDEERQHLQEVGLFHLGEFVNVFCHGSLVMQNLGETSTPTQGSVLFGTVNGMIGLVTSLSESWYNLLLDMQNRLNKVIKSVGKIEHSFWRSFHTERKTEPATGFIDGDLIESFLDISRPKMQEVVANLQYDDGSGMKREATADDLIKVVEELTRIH
Kind of assay: CK1α degradation assay (Western blot, MV-4-11 cells). The conditions noted are these: MV4-11, 6-8 hours. The procedure:
as §3, §4, §5, §6, §7

T1 sequence (Q13422 whole entry): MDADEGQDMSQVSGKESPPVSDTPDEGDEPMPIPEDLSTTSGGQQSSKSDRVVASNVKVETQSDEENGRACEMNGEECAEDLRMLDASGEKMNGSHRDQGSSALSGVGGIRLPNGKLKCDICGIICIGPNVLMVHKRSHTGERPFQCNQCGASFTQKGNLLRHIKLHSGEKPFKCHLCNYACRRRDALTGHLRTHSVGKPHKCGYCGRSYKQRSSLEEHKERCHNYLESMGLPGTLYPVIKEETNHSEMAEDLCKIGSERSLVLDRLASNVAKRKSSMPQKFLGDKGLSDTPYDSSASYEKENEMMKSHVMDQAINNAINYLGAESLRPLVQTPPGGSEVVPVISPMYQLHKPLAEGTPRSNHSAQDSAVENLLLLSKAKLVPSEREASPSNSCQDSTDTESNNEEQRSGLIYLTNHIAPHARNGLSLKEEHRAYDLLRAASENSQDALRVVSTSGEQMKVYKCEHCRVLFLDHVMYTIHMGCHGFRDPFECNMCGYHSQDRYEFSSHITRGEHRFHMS
T1 sequence (Q96SW2 whole entry): as the sequence (Q96SW2 whole entry) above
T1 sequence (Q16531 whole entry partner): as the sequence (Q16531 whole entry partner) above

`O=C1CC[C@H](N2Cc3c(CNc4ccc(CN5CCOCC5)cc4)csc3C2=O)C(=O)N1` [Compound 11, (S)-3-(3-(((4-(morpholinomethyl)phenyl)amino)methyl)-6-oxo-4H-thieno[2,3-c]pyrrol-5(6H)-yl)piperidine-2,6-dione]: in the assay with MOLM-13 cells, the viability at 10 µM was under 25%. In the assay with TNFα, the inhibition at 10 µM is under 50%. Moreover, the fold induction at 10 µM in the assay with IL-2 fell in the range of 1 to 2.

`O=C1CC[C@H](N2Cc3c(csc3CNc3ccc(CN4CCOCC4)cc3)C2=O)C(=O)N1` [Compound 10, (S)-3-(1-(((4-(morpholinomethyl)phenyl)amino)methyl)-4-oxo-4H-thieno[3,4-c]pyrrol-5(6H)-yl)piperidine-2,6-dione] registered a viability at 10 µM in the assay on MOLM-13 cells of 25 to 50%. In addition, the figures for the inhibition at 10 µM in the assay on IL-1β, in the assay with TNFα and in the assay with IL-6 were 70 to 90%, over 90% and under 50%, respectively. For the same molecule, the fold induction at 10 µM in the assay on IL-2 is 2 to 3.

The molecule `O=C1CC[C@H](N2Cc3c(csc3COc3ccc(CCN4CCOCC4)cc3)C2=O)C(=O)N1` [Compound 15, (S)-3-(1-((4-(2-morpholinoethyl)phenoxy)methyl)-4-oxo-4H-thieno[3,4-c]pyrrol-5(6H)-yl)piperidine-2,6-dione] yielded an IKAROS % degradation at 1 µM at IKAROS of 25 to 50%. Further, the percent degradation at 1 µM on CK1α was 25 to 50%. The inhibition at 10 µM in the assay with IL-1β was over 90%; with TNFα, 70 to 90%; with IL-6 it was 50 to 70%. Besides, the fold induction at 10 µM in the assay with IL-2 was over 3.

Regarding `O=C1CC[C@H](N2Cc3c(csc3COc3ccc(CN4CCOCC4)cc3F)C2=O)C(=O)N1` [Compound 8, (S)-3-(1-((2-fluoro-4-(morpholinomethyl)phenoxy)methyl)-4-oxo-4H-thieno[3,4-c]pyrrol-5(6H)-yl)piperidine-2,6-dione], the IKAROS % degradation at 1 µM on IKAROS lay in the range of 25 to 50%. Further, the inhibition at 10 µM with IL-1β was over 90%; in the assay on TNFα, over 90%; in the assay on IL-6, 70 to 90%. The fold induction at 10 µM in the assay with IL-2 is 2 to 3.

`O=C1CC[C@H](N2Cc3c(COc4ccc(CN5CCOCC5)cc4)csc3C2=O)C(=O)N1` [Compound 5, (S)-3-(3-((4-(morpholinomethyl)phenoxy)methyl)-6-oxo-4H-thieno[2,3-c]pyrrol-5(6H)-yl)piperidine-2,6-dione] had a fold induction at 10 µM with IL-2 of 1 to 2.

On to `O=C1CC[C@H](N2Cc3c(csc3COCc3ccc(CN4CCOCC4)cc3)C2=O)C(=O)N1` [Compound 9, (S)-3-(1-(((4-(morpholinomethyl)benzyl)oxy)methyl)-4-oxo-4H-thieno[3,4-c]pyrrol-5(6H)-yl)piperidine-2,6-dione], for which the figures for the inhibition at 10 µM in the assay on IL-1β, with TNFα and in the assay on IL-6 were 70 to 90%, over 90% and under 50%, respectively. For the same molecule, the fold induction at 10 µM with IL-2 is over 3.

`O=C1CC[C@H](N2Cc3c(csc3CCc3ccc(CN4CCOCC4)cc3)C2=O)C(=O)N1` [Compound 6, (S)-3-(1-(4-(morpholinomethyl)phenethyl)-4-oxo-4H-thieno[3,4-c]pyrrol-5(6H)-yl)piperidine-2,6-dione] gave an IKAROS % degradation at 1 µM at IKAROS of 25 to 50%. The inhibition at 10 µM is 70 to 90% in the assay on IL-1β, 70 to 90% with TNFα and under 50% in the assay with IL-6. In the assay on IL-2, this molecule showed a fold induction at 10 µM of 2 to 3.

For the molecule `O=C1CC[C@H](N2Cc3c(NCc4ccc(CN5CCOCC5)cc4)csc3C2=O)C(=O)N1` [Compound 3, (S)-3-(3-((4-(morpholinomethyl)benzyl)amino)-6-oxo-4H-thieno[2,3-c]pyrrol-5(6H)-yl)piperidine-2,6-dione], the “IKAROS % Degradation at 10 μM” value on IKAROS is “C (“C” represents a % degradation value of equal to or more than 50% and less than 75% (50%≤value <75%))”. Also, in the assay on TNFα, the inhibition at 10 µM is under 50%. In the assay on IL-2, this molecule yielded a fold induction at 10 µM of at most 1.

In the case of `O=C1CC[C@H](N2Cc3c(csc3COc3ccc(CN4CCOCC4)cn3)C2=O)C(=O)N1` [Compound 12, (S)-3-(1-(((5-(morpholinomethyl)pyridin-2-yl)oxy)methyl)-4-oxo-4H-thieno[3,4-c]pyrrol-5(6H)-yl)piperidine-2,6-dione], the inhibition at 10 µM in the assay with TNFα was under 50%. This molecule had a fold induction at 10 µM in the assay on IL-2 of 1 to 2.

On to `O=C1CC[C@H](N2C(=O)c3csc(COc4ccc(CN5CCOCC5)cc4)c3C2=O)C(=O)N1` [Compound 20, (S)-5-(2,6-dioxopiperidin-3-yl)-1-((4-(morpholinomethyl)phenoxy)methyl)-4H-thieno[3,4-c]pyrrole-4,6(5H)-dione], for which the “IKAROS % Degradation at 10 μM” value at IKAROS is “B (“B” represents a % degradation value of equal to or more than 25% and less than 50% (25%≤value<50%))”. This molecule showed a viability at 10 µM in the assay on MOLM-13 cells of under 25%. Moreover, the inhibition at 10 µM with IL-1β and with TNFα was 50 to 70% in each case. Moreover, the fold induction at 10 µM with IL-2 lay in the range of 1 to 2.

For `O=C1CC[C@H](N2Cc3c(csc3COc3cccc(CN4CCOCC4)c3)C2=O)C(=O)N1` [Compound 7, (S)-3-(1-((3-(morpholinomethyl)phenoxy)methyl)-4-oxo-4H-thieno[3,4-c]pyrrol-5(6H)-yl)piperidine-2,6-dione], the IKAROS % degradation at 1 µM on IKAROS is 50 to 75%. The inhibition at 10 µM with IL-1β and with TNFα was 70 to 90% in each case. Besides, the fold induction at 10 µM with IL-2 was 2 to 3.

On to `O=C1CC[C@H](N2Cc3cc(COc4ccc(CN5CCOCC5)cc4)sc3C2=O)C(=O)N1` [Compound 16, (S)-3-(2-((4-(morpholinomethyl)phenoxy)methyl)-6-oxo-4H-thieno[2,3-c]pyrrol-5(6H)-yl)piperidine-2,6-dione], for which the “IKAROS % Degradation at 10 μM” value at IKAROS is given as “A (“A” represents a % degradation value of less than 25% (value<25%))”. Moreover, the inhibition at 10 µM with TNFα is under 50%. Further, the fold induction at 10 µM in the assay on IL-2 was at most 1.
